A short description of data set [1]: Cellular toxicity assay in PBM cells. The format is cell-based. To be noted: human; for CC50: read-out: Cytotoxicity, CC50; for cytotoxicity: value in parentheses after CC50, read-out: Cytotoxicity (% inhibition). The protocol: (§1) The toxicity of the compounds was assessed in Vero, human PBM, CEM (human lymphoblastoid), MT-2, and HepG2 cells, as described previously (see Schinazi R. F., Sommadossi J.-P., Saalmann V., Cannon D. L., Xie M.-Y., Hart G. C., Smith G. A. & Hahn E. F. Antimicrob. Agents Chemother. 1990, 34, 1061-67).
(§2) Cycloheximide was included as positive cytotoxic control, and untreated cells exposed to solvent were included as negative controls. The cytotoxicity IC50 was obtained from the concentration-response curve using the median effective method described previously (see Chou T.-C. & Talalay P. Adv. Enzyme Regul. 1984, 22, 27-55; Belen′kii M. S. & Schinazi R. F. Antiviral Res. 1994, 25, 1-11).

Data set [2] is described as follows: Cellular toxicity assay in Vero cells. To be noted: African green monkey; for CC50: read-out: Cytotoxicity, CC50; for cytotoxicity: value in parentheses after CC50, read-out: Cytotoxicity (% inhibition). It counts as cell-based. Here is the method:
as §1, §2

Data set [3] can be described thus: Cellular toxicity assay in CEM cells. The format is cell-based. As to conditions: human; for CC50: read-out: Cytotoxicity, CC50; for cytotoxicity: value in parentheses after CC50, read-out: Cytotoxicity (% inhibition). Here is the method:
as §1, §2

In data set [4] the test system is HepaRG cells. Briefly: HepaRG 14-day cell viability assay (CellTiter-Glo). The format is cell-based. As to conditions: 14 days with 4 repeat doses. The protocol:
IC50 in HepaRG Cells for a 14-Day Assay (Non-Proliferating Liver Cells) Using Cell Titer GLO
HepaRG cells are plated one week prior to dosing to allow for the cells to regain its maximal metabolic activity and structure. HepaRG cells are dosed with increasing concentrations of the test compound (final DMSO concentration=0.5%); final test compound concentrations of 100, 30, 10, 3, 1, 0.3, 0.1, 0.03 μM for an eight point dose response curve (n=3 replicates per concentration) and the microtissues are incubated for 14 days with 4 repeat doses. Appropriate controls are simultaneously used as quality controls. Following the dosing period the medium is removed the cell viability is determined using CellTiter-Glo® reagent. The test sample is subsequently transferred to designated wells of a white assay plate and the luminescence determined using a luminometer.
IC50 values are also determined provided a clear dose-response relationship is observed.

In data set [5] the test system is nuclear DNA (ß-actin or rRNA gene) in HepG2 cells. Briefly: Nuclear DNA level in HepG2 cells (real-time PCR). It counts as cell-based, human. As to conditions: HepG2 cells, 14-day assay; for % inhibition nDNA: 10 μM; for IC50: read-out: IC50 nDNA. Here is the method:
(§3) This assay was used in all studies described in this application that determine the effect of compounds on mitochondrial DNA content. In this assay, low-passage-number HepG2 cells were seeded at 5,000 cells/well in collagen-coated 96-well plates. Test compounds were added to the medium to obtain final concentrations of 0 μM, 0.1 μM, 10 μM and 100 μM. […] The mitochondrial cytochrome c oxidase subunit II (COXII) gene and the ß-actin or rRNA gene were amplified from 5 μl of the eluted nucleic acids using a multiplex Q-PCR protocol with suitable primers and probes for both target and reference amplifications. […] For exon 3 of the ß-actin gene (GenBank accession number E01094) the sense, probe, and antisense primers are 5′-[…]-3′ (SEQ ID NO. 4), 5′-6-[…]-3′ (SEQ ID NO. 5) and 5′-[…]-3′ (SEQ ID NO. 6), respectively. The primers and probes for the rRNA gene are commercially available from Applied Biosystems. […] The comparative CT method uses arithmetic formulas in which the amount of target (COXII gene) is normalized to the amount of an endogenous reference (the B-actin or rRNA gene) and is relative to a calibrator (a control with no drug at day 7). The arithmetic formula for this approach is given by 2-ΔΔCT, where ΔΔCT is (CT for average target test sample−CT for target control)−(CT for average reference test−CT for reference control) (see Johnson M R, K Wang, J B Smith, M J Heslin, R B Diasio. Quantitation of dihydropyrimidine dehydrogenase expression by real-time reverse transcription polymerase chain reaction. Anal. Biochem. 2000; 278:175-184). A decrease in mitochondrial DNA content in cells grown in the presence of drug indicated mitochondrial toxicity.

In data set [6] the test system is mitochondrial DNA (COXII gene) in HepG2 cells. Briefly: Mitochondrial DNA level in HepG2 cells (real-time PCR). As to conditions: for % inhibition MitDNA / IC50: HepG2 cells, 14-day assay; for % inhibition MitDNA: 10 μM; for IC50: read-out: IC50 MitDNA. The protocol: as §3, with “The” for “The comparative CT method uses arithmetic formulas in which the amount of target (COXII gene) is normalized to the amount of an endogenous reference (the B-actin or rRNA gene) and is relative to a calibrator (a control with no drug at day 7). The”

Data set [7] concerns HepG2 cells. Briefly: Lactic acid production in HepG2 cells. It counts as cell-based, human. To be noted: 14-day assay, 10 μM. Here is the method: To measure the effects of the compounds on lactic acid production, HepG2 cells from a stock culture were diluted and plated in 12-well culture plates at 2.5×10^4 cells per well. […] […] The culture medium was then filtered, and the lactic acid content in the medium was determined using a colorimetric lactic acid assay (Sigma-Aldrich). Since lactic acid product can be considered a marker for impaired mitochondrial function, elevated levels of lactic acid production detected in cells grown in the presence of test compounds would indicate a drug-induced cytotoxic effect.

For data set [8], the system named is HCV 1b (Huh 7 Clone B cells containing HCV Replicon RNA). Briefly: HCV replicon assay. The format is cell-based. To be noted: HCV 1b replicon; for EC50 / EC90: Hepatitis C virus, Huh-7, letter value; for EC50: read-out: EC50 (μM or letter value); for EC90: read-out: EC90 (μM or letter value) or % inhib HCV. The protocol:
Huh 7 Clone B cells containing HCV Replicon RNA were seeded in a 96-well plate at 5000 cells/well, and the compounds tested at 10 μM in triplicate immediately after seeding. Following five days incubation (37° C., 5% CO2), total cellular RNA was isolated by using versaGene RNA purification kit from Gentra. Replicon RNA and an internal control (TaqMan rRNA control reagents, Applied Biosystems) were amplified in a single step multiplex Real Time RT-PCR Assay. The antiviral effectiveness of the compounds was calculated by subtracting the threshold RT-PCR cycle of the test compound from the threshold RT-PCR cycle of the no-drug control (ΔCt HCV). A ΔCt of 3.3 equals a 1-log reduction (equal to 90% less starting material) in Replicon RNA levels. The cytotoxicity of the compounds was also calculated by using the ΔCt rRNA values. 2′-C-Me-C was used as the positive control. To determine EC90 and IC50 values^2, ΔCt: values were first converted into fraction of starting material^3 and then were used to calculate the % inhibition. […]

From patent publication US10011629B2, “Nucleoside analogs for treatment of the flaviviridae family of viruses and cancer” (Cocrystal Pharma, Inc., priority 2015, dated 2018) come the findings set out here.

Take `O=c1ccn([C@@H]2O[C@H](CO)[C@@H](O)[C@]2(F)Br)c(=O)[nH]1`: the CC50 in data set [1], in data set [2] and in data set [3] (CEM lymphoblastoid cells) was more than 100 µM in each case. Moreover, the cytotoxicity was -24% in data set [1], 4.2% in data set [2] and 21% in data set [3] (CEM lymphoblastoid cells).
Regarding `CC(C)OC(=O)[C@H](C)NP(=O)(OC[C@H]1O[C@@H](n2ccc(=O)[nH]c2=O)C(F)(Br)C1O)Oc1ccccc1` (some centres unmarked), the CC50 in data set [1], in data set [2] and in data set [3] was more than 100 µM throughout. Moreover, the values for the cytotoxicity in data set [1], in data set [2] and in data set [3] were -3.8%, 2.6% and 14%, respectively.
`N#CC(C#N)=NNc1cccc(Cl)c1` [Carbonyl cyanide m-chlorophenyl hydrazone, reference compound]: in data set [4] (Homo sapiens, 336 h), half-maximal inhibition (IC50) was put at 5.08 µM.
In the case of `Nc1ccn([C@@H]2CS[C@H](CO)O2)c(=O)n1` [Compound 3TC, reference compound], in data set [5], the “% inhibition nDNA” value was found to be 26.8% and the IC50 was more than 10 µM. For the same compound, in data set [6], the “% inhibition MitDNA” value is listed as 33.3% and the IC50 is more than 10 µM. Also, the “Lactic acid Production (% of control)” value in data set [7] was 94.9 ± 12.2 % of control.
Turning to `CC(C)OC(=O)[C@H](C)NP(=O)(OC[C@H]1O[C@@H](n2ccc(N)nc2=O)[C@](F)(Br)[C@@H]1O)Oc1ccccc1` (stereo partly drawn) [Compound 21, Isopropyl ((((2R,3R,4R,5R)-5-(4-amino-2-oxopyrimidin-1(2H)-yl)-4-bromo-4-fluoro-3-hydroxytetrahydrofuran-2-yl)methoxy)(phenoxy)phosphoryl)-L-alaninate], the “EC50 (μM or letter value): value printed as % @ 10 μM” value in data set [8] (10 μM) was found to be 67.9% @ 10 μM.
As for `CC(C)OC(=O)[C@H](C)N[P@@](=O)(OC[C@H]1O[C@@H](n2ccc(=O)[nH]c2=O)[C@@](F)(Br)C1O)Oc1ccccc1` (some centres unmarked) [Compound 22], in data set [4] (Homo sapiens, 336 h), the half-maximal inhibitory concentration (IC50) was determined as 7.18 µM. In data set [8], the EC50 was 0.1 to 1 µM and the EC90 was in the range of 1 to 10 µM.
As to `CC(C)OC(=O)[C@H](C)N[P@](=O)(OC[C@H]1O[C@@H](n2ccc(=O)[nH]c2=O)[C@@](F)(Br)C1O)Oc1ccccc1` (some centres unmarked) [Compound 23], the IC50 in data set [4] (Homo sapiens, 336 h) was determined as 35 µM. Further, in data set [8], the EC50 lay within 0.1 to 1 µM and the EC90 lay within 0.1 to 1 µM.
`Nc1ccn([C@H]2CC[C@@H](CO)O2)c(=O)n1` [ddc, reference compound]: in data set [5], the “% inhibition nDNA” value came to 88.7% and the concentration for half-maximal inhibition (IC50) was less than 10 µM. For the same compound, in data set [6], the “Summary (mitochondrial toxicity)” value is given as “toxic”, the “% inhibition MitDNA” value turned out to be 99.9% and the IC50 is less than 10 µM. For the same compound, in data set [7], the “Lactic acid Production (% of control)” value is reported as 267 ± 25.2 % of control.
Compound Tunicamycin [reference compound] returned an IC50 in data set [4] of 0.011 µM.
